Experiments:
Format in all cases: cell-based
[1] = tested on: influenza B (Brisbane/60/2008 strain); assay: Neutral red CPE assay, influenza B in MDCK cells; details: DMEM + trypsin + EDTA, max CPE day 3
Protocol: K12 and M18 were tested for in vitro antiviral activity against RSV (A2 strain) and influenza B (Brisbane/60/2008 strain).
Samples were serially diluted using four 2-fold dilutions in media so that the starting (high) test concentration was 50%. Media for MDCK cells included DMEM+10 U/ml trypsin+1 ug/mL EDTA. Each dilution was added to 5 wells of a 96-well plate with 80-100% confluent cells. Three wells of each dilution were infected with virus, and two wells remained uninfected as toxicity controls. Six wells were infected and untreated as virus controls, and six wells were uninfected and untreated as cell controls. A positive control compound, ribavirin, was tested in parallel. Plates were incubated at 37±2° C., 5% CO2.
Once untreated virus control wells reached maximum CPE on the day indicated in the table below, plates were stained with neutral red dye for approximately 2 hours (±15 minutes). Supernatant dye was removed and wells rinsed with PBS, and the incorporated dye was extracted in 50:50 Sorensen citrate buffer/ethanol for >30 minutes and the optical density was read on a spectrophotometer at 540 nm.
The selective index (SI) is the CC50 divided by EC50.

Influenza A virus H3N2 = assay: Neutral red CPE assay, Influenza A in MDCK cells; details: strain samples: resuspension medium DMEM, time to produce antiviral activity 6
Protocol: The antiviral activity of S. salivarius sample preparations were evaluated against severe acute respiratory syndrome coronavirus 2 (SARS-CoV-2) and Influenza A virus H3N2 in neutral red (NR) assays to evaluate inhibition of viral-induced cytopathic effect (CPE).
Neutral red assay: Samples were received frozen on dry ice and stored at −20° C. upon arrival. All 10 samples were serially diluted in test medium using 4 1:2 dilutions so that the starting (high) test concentration was 50% sample. Each dilution was added to 5 wells of a 96-well plate with 80-90% confluent Vero 76 (SARS-CoV-2) or MDCK (Influenza) cells.
Three wells of each dilution were infected with virus, and two wells remained uninfected as toxicity controls. On each plate, six untreated wells were infected as virus controls, and six untreated wells were left uninfected to use as cell controls.
Viruses were diluted to a specific 50% cell culture infectious dose (CCID50) per mL to achieve the lowest possible multiplicity of infection (MOI) that would yield >80% cytopathic effect (CPE) within 3-5 days. […]
Supernatant dye was removed, wells rinsed with PBS, and the incorporated dye was extracted in 50:50 Sorensen citrate buffer/ethanol for >30 minutes and the optical density was read on a spectrophotometer at 540 nm. […]

RSV (A2 strain) = details: MA-104, DMEM, max CPE day 6
[2] = tested on: SARS-CoV-2, USA-WA1/2020 strain

| Structure (SMILES) | SI Index [1] | SI Index (Influenza A virus H3N2) | SI Index (RSV (A2 strain)) | Round 1 virus titer ([2]; 30-minute contact at room temperature, 90% preparation and 10% virus solution, virus control 4.2) [log 10 CCID50 per 0.1 mL] | Round 2 Virus titer ([2]; 30-minute contact at room temperature, 90% preparation and 10% virus stock, virus control 4.0) [log 10 CCID50 per 0.1 mL] | Log Reduction value ([2]; Round 2, compared to virus control) |
| --- | --- | --- | --- | --- | --- | --- |
| NC(=O)c1ncn([C@@H]2O[C@H](CO)[C@@H](O)[C@H]2O)n1 [Ribavirin, ribavirin] | >320 | >590 | 14 | – | – | – |
| CCO [Ethanol] | – | – | – | 1.1 | <0.67 | 3.33 |

From patent publication US12480089B2, “Antiviral treatment comprising Blis containing probiotic products” (BLIS TECHNOLOGIES LIMITED, priority 2020, dated 2025)
